From patent publication US5405849A, “Angiotensin II receptor blocking 2,3,6 substituted quinazolinones” (American Cyanamid Company, priority 1993, dated 1995)

Tested on: angiotensin II (AII) vasopressor response
Assay: AII challenge: antagonism of the vasopressor response of angiotensin II in conscious Okamoto-Aoki SHR
Type: in vivo, rat (Okamoto-Aoki SHR)
Settings: for inhibition in vivo at 1 mg/kg / inhibition in vivo at 2 mg/kg / inhibition in vivo at 3 mg/kg / inhibition in vivo at 5 mg/kg / inhibition in vivo at 30 mg/kg: Rattus norvegicus; for inhibition in vivo at 1 mg/kg / inhibition in vivo at 2 mg/kg / inhibition in vivo at 3 mg/kg / inhibition in vivo at 30 mg/kg: iv; for inhibition in vivo at 5 mg/kg: po; for inhibition in vivo at 30 mg/kg: 30 mg/kg iv
Text: Conscious Male Okamoto-Aoki SHR, 16-20 weeks old, weighing approximately 330 g are purchased from Charles River Labs (Wilmington, Mass.). Conscious rats are restrained in a supine position with elastic tape. The area at the base of the tail is locally anesthetized by subcutaneous infiltration with 2% procaine. The ventral caudal artery and vein are isolated, and a cannula made of polyethylene (PE) 10-20 tubing (fused together by heat) is passed into the lower abdominal aorta and vena cava, respectively. The cannula is secured, heparinized (1,000 I.U./ml), sealed and the wound is closed. The animals are placed in plastic restraining cages in an upright position. The cannula is attached to a Statham P23Db pressure transducer, and pulsatile blood pressure is recorded to 10-15 minutes with a Gould Brush recorder.
Angiotensin II (human sequence, Sigma Chem. Co., St. Louis, Mo.) of 0.05 and 0.1 ug/kg i.v. is injected into all rats (predosing response). Then a test compound, vehicle or a known angiotensin II antagonist is administered i.v., i.p. or orally to each set of rats. […] The vasopressor response of angiotensin II is measured for the increase in systolic blood pressure in mmHg. The percentage of antagonism or blockade of the vasopressor response of angiotensin II by a compound is calculated using the vasopressor response (increase in systolic blood pressure) of angiotensin II of each rat predosing the compound as 100%.

SMILES: CCCCc1nc2ccc(C(C)(C)OC)cc2c(=O)n1Cc1ccc(-c2ccccc2-c2nnn[nH]2)cc1 [Example 57, 2-Butyl-6-(1-methoxy-1-methylethyl)-3-[[2'-(1H-tetrazol-5-yl)[1,1'-biphenyl]-4-yl]methyl]-4(3H)-quinazolinone]
- Response change (systolic BP increase to AII) (1 mg/kg iv, AII .025 ug/kg, 15 min): 15 mmHg
- Response change (systolic BP increase to AII) (1 mg/kg iv, AII .025 ug/kg, 30 min): 15 mmHg
- Response change (systolic BP increase to AII) (1 mg/kg iv, AII .025 ug/kg, 60 min): 5 mmHg
- Response change (systolic BP increase to AII) (1 mg/kg iv, AII .05 ug/kg, 15 min): 5 mmHg
- Response change (systolic BP increase to AII) (1 mg/kg iv, AII .05 ug/kg, 30 min): 10 mmHg
- Response change (systolic BP increase to AII) (1 mg/kg iv, AII .05 ug/kg, 60 min): 15 mmHg
- Response change (systolic BP increase to AII) (1 mg/kg iv, AII .1 ug/kg, 15 min): 25 mmHg
- Response change (systolic BP increase to AII) (1 mg/kg iv, AII .1 ug/kg, 30 min): 35 mmHg
- Response change (systolic BP increase to AII) (1 mg/kg iv, AII .1 ug/kg, 60 min): 35 mmHg
- Response change (systolic BP increase to AII) (2 mg/kg iv, AII .025 ug/kg, 30 min): 0 mmHg
- Response change (systolic BP increase to AII) (2 mg/kg iv, AII .025 ug/kg, 120 min): 60 mmHg
- Response change (systolic BP increase to AII) (2 mg/kg iv, AII .025 ug/kg, 150 min): 0 mmHg
- Response change (systolic BP increase to AII) (2 mg/kg iv, AII .05 ug/kg, 30 min): 0 mmHg
- Response change (systolic BP increase to AII) (2 mg/kg iv, AII .05 ug/kg, 120 min): 30 mmHg
- Response change (systolic BP increase to AII) (2 mg/kg iv, AII .05 ug/kg, 150 min): 0 mmHg
- Response change (systolic BP increase to AII) (2 mg/kg iv, AII .1 ug/kg, 30 min): 0 mmHg
- Response change (systolic BP increase to AII) (2 mg/kg iv, AII .1 ug/kg, 120 min): 20 mmHg
- Response change (systolic BP increase to AII) (3 mg/kg iv, AII .025 ug/kg, 150 min): 15 mmHg
- Response change (systolic BP increase to AII) (3 mg/kg iv, AII .05 ug/kg, 150 min): 15 mmHg
- Response change (systolic BP increase to AII) (3 mg/kg iv, AII .1 ug/kg, 150 min): 25 mmHg
- Response change (systolic BP increase to AII) (5 mg/kg oral, AII .025 ug/kg, 240 min): 0 mmHg
- inhibition in vivo at 1 mg/kg (0.25 h, 1 mg/kg iv, AII .025 ug/kg, 15 min): 50%
- inhibition in vivo at 1 mg/kg (0.25 h, 1 mg/kg iv, AII .05 ug/kg, 15 min): 89%
- inhibition in vivo at 1 mg/kg (0.25 h, 1 mg/kg iv, AII .1 ug/kg, 15 min): 48%
- inhibition in vivo at 1 mg/kg (0.5 h, 1 mg/kg iv, AII .025 ug/kg, 30 min): 50%
- inhibition in vivo at 1 mg/kg (0.5 h, 1 mg/kg iv, AII .05 ug/kg, 30 min): 78%
- inhibition in vivo at 1 mg/kg (0.5 h, 1 mg/kg iv, AII .1 ug/kg, 30 min): 27%
- inhibition in vivo at 2 mg/kg (0.5 h, 2 mg/kg iv, AII .025 ug/kg, 30 min): 100%
- inhibition in vivo at 2 mg/kg (0.5 h, 2 mg/kg iv, AII .05 ug/kg, 30 min): 100%
- inhibition in vivo at 2 mg/kg (0.5 h, 2 mg/kg iv, AII .1 ug/kg, 30 min): 100%
- inhibition in vivo at 1 mg/kg (1 h, 1 mg/kg iv, AII .025 ug/kg, 60 min): 83%
- inhibition in vivo at 1 mg/kg (1 h, 1 mg/kg iv, AII .05 ug/kg, 60 min): 67%
- inhibition in vivo at 1 mg/kg (1 h, 1 mg/kg iv, AII .1 ug/kg, 60 min): 27%
- inhibition in vivo at 2 mg/kg (2 h, 2 mg/kg iv, AII .025 ug/kg, 120 min): 100%
- inhibition in vivo at 2 mg/kg (2 h, 2 mg/kg iv, AII .05 ug/kg, 120 min): 33%
- inhibition in vivo at 2 mg/kg (2 h, 2 mg/kg iv, AII .1 ug/kg, 120 min): 58%
- inhibition in vivo at 2 mg/kg (2.5 h, 2 mg/kg iv, AII .025 ug/kg, 150 min): 100%
- inhibition in vivo at 2 mg/kg (2.5 h, 2 mg/kg iv, AII .05 ug/kg, 150 min): 100%
- inhibition in vivo at 2 mg/kg (2.5 h, 2 mg/kg iv, AII .1 ug/kg, 150 min): 82%
- inhibition in vivo at 3 mg/kg (2.5 h, 3 mg/kg iv, AII .025 ug/kg, 150 min): 50%
- inhibition in vivo at 3 mg/kg (2.5 h, 3 mg/kg iv, AII .05 ug/kg, 150 min): 67%
- inhibition in vivo at 3 mg/kg (2.5 h, 3 mg/kg iv, AII .1 ug/kg, 150 min): 48%
- inhibition in vivo at 5 mg/kg (0.5 h, 5 mg/kg oral, AII .025 ug/kg, 30 min): 94%
- inhibition in vivo at 5 mg/kg (1 h, 5 mg/kg oral, AII .025 ug/kg, 60 min): 89%
- inhibition in vivo at 5 mg/kg (1.5 h, 5 mg/kg oral, AII .05 ug/kg, 90 min): 61%
- inhibition in vivo at 5 mg/kg (1.5 h, 5 mg/kg oral, AII .1 ug/kg, 90 min): 36%
- inhibition in vivo at 5 mg/kg (2 h, 5 mg/kg oral, AII .025 ug/kg, 120 min): 94%
- inhibition in vivo at 5 mg/kg (2 h, 5 mg/kg oral, AII .1 ug/kg, 120 min): 40%
- inhibition in vivo at 5 mg/kg (3 h, 5 mg/kg oral, AII .025 ug/kg, 180 min): 72%
- inhibition in vivo at 5 mg/kg (3 h, 5 mg/kg oral, AII .05 ug/kg, 180 min): 68%
- inhibition in vivo at 5 mg/kg (3 h, 5 mg/kg oral, AII .1 ug/kg, 180 min): 56%
- inhibition in vivo at 5 mg/kg (4 h, 5 mg/kg oral, AII .025 ug/kg, 240 min): 100%
- inhibition in vivo at 5 mg/kg (4 h, 5 mg/kg oral, AII .05 ug/kg, 240 min): 49%
- inhibition in vivo at 5 mg/kg (4 h, 5 mg/kg oral, AII .1 ug/kg, 240 min): 48%

SMILES: CCCCc1nc2ccc(C(C)OC(C)=O)cc2c(=O)n1Cc1ccc(-c2ccccc2-c2nnn[nH]2)cc1 (stereo not drawn) [Example 58, 6-[1-(Acetyloxy)ethyl]-2-butyl-3-[[2'-(1H-tetrazol-5-yl)[1,1'-biphenyl]-4-yl]methyl]-4(3H) -quinazolinone]
- inhibition in vivo at 30 mg/kg (0.5 h, AII .05 ug/kg, 30 min): 87%
- inhibition in vivo at 30 mg/kg (0.5 h, AII .1 ug/kg, 30 min): 98%
- inhibition in vivo at 30 mg/kg (1.5 h, AII .05 ug/kg, 90 min): 85%
- inhibition in vivo at 30 mg/kg (1.5 h, AII .1 ug/kg, 90 min): 95%
- inhibition in vivo at 30 mg/kg (2.5 h, AII .05 ug/kg, 150 min): 85%
- inhibition in vivo at 30 mg/kg (2.5 h, AII .1 ug/kg, 150 min): 81%
